Measurements: patent US7902356B2, “Thiazolopyridinone derivates as MCH receptor antagonists” (Eli Lilly and Company, priority 2004, dated 2011)
Structures can show the parent of a compound that is named as a salt.

Key:
human MCHR1 = biological target: T1, human MCHR1 (Homo sapiens, UniProt Q99705); assay: 125I-MCH competitive binding assay with clone 43 membranes (SPA); details: 125I-MCH binding, Ki from IC50 by Cheng-Prusoff
T1 construct: The full-length cDNA for human MCHR1 was cloned; expressed in transfected cells; host or cells: AV12 cells previously transfected with Galpha15
T1 sequence (Q99705 whole entry): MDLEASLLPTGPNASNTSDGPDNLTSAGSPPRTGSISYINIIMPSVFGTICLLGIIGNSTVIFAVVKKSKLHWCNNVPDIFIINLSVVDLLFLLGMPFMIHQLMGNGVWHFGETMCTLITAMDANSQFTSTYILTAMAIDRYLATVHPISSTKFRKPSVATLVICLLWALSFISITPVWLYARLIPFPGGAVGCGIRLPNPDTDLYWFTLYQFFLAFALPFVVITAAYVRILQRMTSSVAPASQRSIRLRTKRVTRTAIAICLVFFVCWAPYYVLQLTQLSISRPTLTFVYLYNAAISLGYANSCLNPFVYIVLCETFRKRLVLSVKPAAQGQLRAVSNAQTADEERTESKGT
Protocol: The full-length cDNA for human MCHR1 was cloned from a human adult brain cDNA library (Edge Biosystems, Cat. 38356) by standard polymerase chain reaction (PCR) methodology employing the following primers: sense, 5′-GCCACCATGGACCT GGAAGCCTCGCTGC-3′; anti-sense, 5′-[…]-3′. The PCR reaction was performed in a final volume of 50 μl containing 5 μl of a 10× stock solution of PCR buffer, 1 μl of 10 mM dNTP mixture (200 μM final), 2 μl of 50 mM Mg(SO4) (2 mM final), 0.5 μl of 20 μM solutions of each primer (0.2 μM final), 5 μl of template cDNA containing 0.5 ng DNA, 0.5 μl of Platinum Taq High Fidelity DNA polymerase (Gibco Life Technologies) and […] of H2O. PCR amplification was performed on a Perkin Elmer 9600 thermocycler. After denaturation for 90 sec at 94° C., the amplification sequence consisting of 94° C. for 25 sec, 55° C. for 25 sec and 72° C. for 2 min was repeated 30 times, followed by a final elongation step at 72° C. for 10 min. The desired PCR product (1.1 Kb) was confirmed by agarose gel electrophoresis and the band was extracted from the gel by Geneclean (Bio101) following the manufacturer's instructions. Following extraction, the cDNA fragment was cloned into pCR2.1-TOPO plasmid (Invitrogen Corp) to confirm the identity and sequence.
In order to generate cell lines stably expressing MCHR1, the insert was then subcloned into the Xba I and Not I sites of pcDNA(+)-3.1-neomycin (Invitrogen). After purification by Qiagen Maxi-prep kit (QIAGEN, Inc.), the plasmid was transfected by Fugene 6 (Roche Applied Science) into AV12 cells that had been previously transfected with the promiscuous G protein Gα15. The transfected cells were selected by G418 (800 μg/ml) for 10-14 days and single colonies were isolated from culture plates. The G418-resistant colonies were further selected for MCHR1 expression by measuring MCH-stimulated Ca^2+ transients with a fluorometric imaging plate reader (FLIPR, Molecular Devices).
Both the ^125I-MCH binding and functional GTPγ^35S binding assays employed membranes isolated from a clone designated as clone 43. Typically, cells from 20 confluent T225 flasks were processed by washing the monolayers in cold phosphate-buffered saline (PBS), scraping the cells into same and re-suspending the cell pellet in 35 ml of 250 mM Sucrose, 50 mM HEPES, pH 7.5, 1 mM MgCl2, 24 μg/ml DNase I, and protease inhibitors (1 Complete® tablet, per 50 ml of buffer prepared, Roche Diagnostics). Alternatively, greater levels of cells could be generated by adapting cell growth to suspension culture in 20 L stirred vessel bioreactors. After incubation on ice for 5 min, cells were disrupted with 20-25 strokes of a Teflon/Glass homogenizer attached to an overhead motorized stirrer, and the homogenate was centrifuged at 40,000 rpm in Beckman Type 70.1 Ti rotor. The pellets were re-suspended in 250 mM Sucrose, 50 mM HEPES, pH 7.5, 1.5 mM CaCl2, 1 mM MgSO4 and protease inhibitors by Teflon/Glass homogenization to achieve a protein concentration of ˜3-5 mg/ml (Pierce BCA assay with Bovine serum albumin as standard). Aliquots were stored at −70° C.
Binding of compounds to MCHR1 was assessed in a competitive binding assay employing ^125I-MCH, compound and clone 43 membranes. Briefly, assays are carried out in 96-well Costar 3632 white opaque plates in a total volume of 200 μl containing 25 mM HEPES, pH 7.0, 10 mM CaCl2, 2 mg/ml bovine serum albumin, 0.5% dimethyl sulfoxide (DMSO), 5 μg of clone 43 membranes, 200 pM ^125I-MCH (NEN), 0.625 mg/ml of wheat germ agglutinin scintillation proximity assay beads (WGA-SPA beads, Amersham Inc., now GE Healthcare) and a graded dose of test compound. Non-specific binding is assessed in the presence of 0.1 μM unlabeled MCH. Bound ^125I-MCH is determined by placing sealed plates in a Microbeta Trilux (Perkin Elmer Life and Analytical Sciences Inc.) and counting after a 12 hr delay. […]

[1] = In vivo efficacy: 3 day body weight change in diet-induced obese rats; details: 10 mg/kg oral gavage once a day for 3 days; 3 day cumulative; diet-induced obese male Long-Evans rats
Protocol: Vehicle consisted of 1% CMC and 0.25% PS-80 in water.
Animals were individually housed in a temperature regulated room (24° C.) with a reverse 12 hour light/dark cycle (dark 10:00/22:00). Water and food (Teklad 95217, Harlan, Wis.) were available ad libitum. Compounds were dosed orally once a day before onset of dark for 3 days. Daily food intake and body weight change were measured for the 3 day period.

Ki (human MCHR1) [nM]	Structure (SMILES)	Body weight reduction @ 10 mg/Kg versus vehicle control. Data expressed in grams. [1] [grams]
3.16	Cl.Cn1cc(CCN2CCCC2)c2ccc(N3CCc4nc(-c5ccc(Cl)cc5)sc4C3=O)cc21 [Example 47, 2-(4-Chloro-phenyl)-5-[1-methyl-3-(2-pyrrolidin-1-yl-ethyl)-1H-indol-6-yl]-6,7-dihydro-5H-thiazolo[5,4-c]pyridin-4-one hydrochloride]	7.2
35.8	COc1cc(-n2ccc3nc(-c4ccc(Cl)cc4)sc3c2=O)ccc1OCCN1CC(C)(C)OC(C)(C)C1 [Example 65, 2-(4-Chloro-phenyl)-5-{3-methoxy-4-[2-(2,2,6,6-tetramethyl-morpholin-4-yl)-ethoxy]-phenyl}-5H-thiazolo[5,4-c]pyridine-4-one Hydrochloride]	

Further lines, the compound ahead of its results:

Structure (SMILES)	Ki (human MCHR1) [nM]	Body weight reduction @ 10 mg/Kg versus vehicle control. Data expressed in grams. [1] [grams]
O=C1c2sc(-c3ccc(Cl)cc3)nc2CCN1c1ccc2c(c1)ncn2CCN1CCCC1 [Example 2, 2-(4-Chloro-phenyl)-5-[1-(2-pyrrolidin-1-yl-ethyl)-1H-benzoimidazol-5-yl]-6,7-dihydro-5H-thiazolo[5,4-c]pyridin-4-one]	39.7	
Cc1cc2cc(N3CCc4nc(-c5ccc(Cl)cc5)sc4C3=O)ccc2n1CCN1CCCC1 [Example 5, 2-(4-Chloro-phenyl)-5-[2-methyl-1-(2-pyrrolidin-1-yl-ethyl)-1H-indol-5-yl]-6,7-dihydro-5H-thiazolo[5,4-c]pyridin-4-one]	10.2	
COc1cc(N2CCc3nc(-c4ccc(Cl)cc4)sc3C2=O)ccc1OCCN1CCCCC1 [Example 15, 2-(4-Chloro-phenyl)-5-[3-methoxy-4-(2-piperidin-1-yl-ethoxy)-phenyl]-6,7-dihydro-5H-thiazolo[5,4-c]pyridin-4-one]	19	
COc1cc(N2CCc3nc(-c4ccc(Cl)cc4)sc3C2=O)ccc1OCCN(C)C [Example 33, 2-(4-Chloro-phenyl)-5-[4-(2-dimethylamino-ethoxy)-3-methoxy-phenyl]-6,7-dihydro-5H-thiazolo[5,4-c]pyridin-4-one]	5.13	
COc1cc(-n2ccc3nc(-c4ccc(Cl)cc4)sc3c2=O)ccc1OCc1cncn1C [Example 42]		1.7
COc1cc(-n2ccc3nc(-c4ccc(Cl)cc4)sc3c2=O)ccc1CCCN1CCCC1.Cl [Example 52, 2-(4-Chloro-phenyl)-5-[3-methoxy-4-(3-pyrrolidin-1-yl-propyl)-phenyl]-5H-thiazolo[5,4-c]pyridin-4-one hydrochloride]		9.6
